Experimental data: patent publication US6710168B1, “Glycopeptide antibiotics, combinatorial libraries of glycopeptide antibiotics and methods of producing same” (The Trustees of the University of Princeton, priority 1999, dated 2004)
In brackets after ≈: the same amount, converted by molar mass.

Assays:
Assay type in all cases: cell-based
[1] = system: Bacillus cereus (ATCC 11778); assay: MIC susceptibility test, microdilution with MTT readout; conditions: Bacillus ceres ATCC11778
How it was run: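 Bacillus cereus ATCC® 11778 susceptibility was measured by broth microdilution in 96-well microplates using Cation Adjusted Mueller-Hinton broth. Samples were diluted two-fold from 5 μg/mL over 12 steps. Each well combined 100 μL of cell suspension (10^6 CFU/mL) with 100 μL of antibiotic solution and was incubated at 37° C. for 24 h. Then 50 μL of MTT (1 mg/mL) was added for 30 min, and MIC (μg/mL) was read as the lowest concentration inhibiting growth.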

[2] = system: Enterococcus faecalis (ATCC 29212); assay: as above; conditions: Enterococcus faecalis ATCC29212
How it was run: (§1)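 Broth microdilution in cation-adjusted Mueller-Hinton broth, 12-step two-fold series from 5 μg/mL to […], mixed 1:1 with 10^6 CFU/mL cell suspension and incubated 24 h at 37 °C. MTT (1 mg/mL solution) is then added for 30 min (S. aureus, MRSA) or 2 h (E. faecalis strains). MIC = lowest concentration inhibiting growth.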

[3] = system: Methicillin resistant Staphylococcus aureus (ATCC 33591); assay: as above; conditions: Staphylococcus aureus ATCC3359, Methicillin resistance
How it was run: as §1

[4] = system: Staphylococcus aureus (ATCC 29213); assay: as above; conditions: Staphylococcus aureus ATCC29213
How it was run: as §1

[5] = system: gentamicin, streptmycin, vancomycin resistant Enterococcus faecalis (ATCC 51299); assay: microbe, parasite or virus in culture; conditions: Enterococcus faecalis ATCC51299, vancomycin resistance
How it was run: as §1

[6] = system: Enterococcus faecium CL5137, VanA; assay: MIC susceptibility test; conditions: Enterococcus faecium CL5137, VanA
[7] = system: Enterococcus faecalis CL5244, VanB; assay: MIC susceptibility test; conditions: Enterococcus faecalis CL5244, VanB
How it was run: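 MTT-based broth microdilution in cation-adjusted Mueller-Hinton broth; two-fold 12-step dilutions […], inoculum 10^6 CFU/mL, 37° C for 24 h.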

CNC(CC(C)C)C(=O)NC1C(=O)NC(CC(N)=O)C(=O)NC2C(=O)NC3C(=O)NC(C(=O)NC(C(=O)O)c4cc(O)cc(O)c4-c4cc3ccc4O)C(O)c3ccc(c(Cl)c3)Oc3cc2cc(c3OC2OC(CNC(=O)c3ccc(-c4ccc(Cl)cc4)cc3)C(O)C(O)C2OC2CC(C)(N)C(O)C(C)O2)Oc2ccc(cc2Cl)C1O (stereo not shown) [XXXVIII, Glucose-C6-N-4-(4-chlorophenyl)benzoyl Vancomycin]
MIC BC [1]: 0.32 µg/mL (≈ 0.192 µM) | MIC EF [2]: 0.32 µg/mL (≈ 0.192 µM) | MIC MRSA [3]: 0.63 µg/mL (≈ 0.379 µM) | MIC SA [4]: 1.0 µg/mL (≈ 0.601 µM) | MIC VREF [5]: 0.16 µg/mL (≈ 0.0962 µM) | MIC CL5137 [6]: 50< μg/mL | MIC CL5244 [7]: 0.4 µg/mL (≈ 0.241 µM)
